Experimental data reported in ChEMBL document CHEMBL1129026, “Rapid microscale synthesis, a new method for lead optimization using robotics and solution phase chemistry: application to the synthesis and optimization of corticotropin-releasing factor1 receptor antagonists” (J Med Chem, 1996).

Molecular target: T1, Corticotropin-releasing factor receptor 1 (Homo sapiens, UniProt P34998)
T1 sequence (P34998 whole entry): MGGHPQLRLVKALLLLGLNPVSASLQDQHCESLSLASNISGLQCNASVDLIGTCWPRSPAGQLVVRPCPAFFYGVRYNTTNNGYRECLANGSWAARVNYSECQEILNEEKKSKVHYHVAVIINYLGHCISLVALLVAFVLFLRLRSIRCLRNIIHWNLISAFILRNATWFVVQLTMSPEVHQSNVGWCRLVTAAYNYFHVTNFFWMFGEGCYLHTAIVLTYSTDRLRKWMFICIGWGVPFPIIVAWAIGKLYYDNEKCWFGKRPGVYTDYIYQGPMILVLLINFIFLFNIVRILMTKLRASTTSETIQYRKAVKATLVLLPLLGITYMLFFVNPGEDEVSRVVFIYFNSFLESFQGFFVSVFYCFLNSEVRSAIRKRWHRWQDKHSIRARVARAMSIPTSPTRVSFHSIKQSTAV
Test: Inhibition of [125I]CRF binding to human corticotropin releasing factor receptor 1

Row | Structure (SMILES) | Ki [µM]
1 | CCCN(CC1CC1)c1nc(C)nc(Nc2ccc(C)cc2)n1 | > 10
2 | CCCN(Cc1ccccc1)c1nc(C)nc(Nc2c(C)cccc2C)n1 | > 10
3 | CCCN(CC1CC1)c1nc(C)nc(Nc2ccc(OC)cc2OC)n1 | 8
4 | CCN(Cc1ccccc1)c1nc(C)nc(Nc2c(C)cccc2C)n1 | > 10
5 | CCCN(CC1CC1)c1nc(C)nc(Nc2c(C)cccc2C)n1 | > 10
6 | CCCN(Cc1ccccc1)c1nc(C)nc(Nc2c(CC)cccc2CC)n1 | > 10
7 | CCc1cccc(CC)c1Nc1nc(C)nc(N(CC)Cc2ccccc2)n1 | 1.7
8 | Cc1ccc(Nc2nc(C)nc(NCc3ccc(C(F)(F)F)cc3)n2)cc1 | > 10
9 | CCCN(Cc1ccccc1)c1nc(C)nc(Nc2ccc(C)cc2)n1 | > 10
10 | C=CCN(CC=C)c1nc(C)nc(Nc2ccc(C)cc2)n1 | > 10
11 | Cc1nc(NCc2ccc(C(F)(F)F)cc2)nc(Nc2c(C)cccc2C)n1 | > 10
12 | CCCCN(Cc1ccccc1)c1nc(C)nc(Nc2c(C)cc(C)cc2C)n1 | 1.05
13 | CCCN(Cc1ccccc1)c1nc(C)nc(Nc2c(C)cc(C)cc2C)n1 | 0.49
14 | CCN(Cc1ccccc1)c1nc(C)nc(Nc2c(C)cc(C)cc2C)n1 | 1.47
15 | CCCN(CCC)c1nc(C)nc(Nc2c(C)cc(C)cc2C)n1 | 0.13
16 | CCCN(CC1CC1)c1nc(C)nc(Nc2ccc(C)cc2C)n1 | > 10
17 | CCc1cccc(CC)c1Nc1nc(C)nc(NCc2ccc(C(F)(F)F)cc2)n1 | 55
18 | C=CCN(CC=C)c1nc(C)nc(Nc2c(C)cccc2C)n1 | > 10
19 | CCCN(CC1CC1)c1nc(C)nc(Nc2c(CC)cccc2CC)n1 | > 10
20 | CCN(Cc1ccccc1)c1nc(C)nc(Nc2ccc(C)cc2)n1 | > 10
21 | CCCCN(CCCC)c1nc(C)nc(Nc2c(C)cc(C)cc2C)n1 | 0.49
22 | C=CCN(CC=C)c1nc(C)nc(Nc2c(C)cc(C)cc2C)n1 | 0.115
23 | CCCN(CC1CC1)c1nc(CC)nc(Nc2c(C)cc(C)cc2C)n1 | > 10
